Assays:
[1] = molecular target: T1, Serine/threonine-protein kinase mTOR (Homo sapiens, UniProt P42345); test: Inhibition of mTOR kinase in human HeLa cells by ELISA; type: cell-based
[2] = molecular target: Phosphatidylinositol 4,5-bisphosphate 3-kinase catalytic subunit alpha isoform (Homo sapiens, UniProt P42336); test: Inhibition of PI3Kalpha kinase
[3] = Growth inhibition of human U87MG cells; type: functional, U-87MG ATCC; details: U-87 MG
[4] = molecular target: T1, Serine/threonine-protein kinase mTOR; test: Inhibition of mTOR kinase in human HeLa cells at 10 uM by ELISA; type: cell-based; set-up: scale not given: the % may be the effect or the level left
[5] = molecular target: Serine-protein kinase ATM (Homo sapiens, UniProt Q13315); test: Inhibition of ATM
Serine-protein kinase ATM, sequence (Q13315 whole entry): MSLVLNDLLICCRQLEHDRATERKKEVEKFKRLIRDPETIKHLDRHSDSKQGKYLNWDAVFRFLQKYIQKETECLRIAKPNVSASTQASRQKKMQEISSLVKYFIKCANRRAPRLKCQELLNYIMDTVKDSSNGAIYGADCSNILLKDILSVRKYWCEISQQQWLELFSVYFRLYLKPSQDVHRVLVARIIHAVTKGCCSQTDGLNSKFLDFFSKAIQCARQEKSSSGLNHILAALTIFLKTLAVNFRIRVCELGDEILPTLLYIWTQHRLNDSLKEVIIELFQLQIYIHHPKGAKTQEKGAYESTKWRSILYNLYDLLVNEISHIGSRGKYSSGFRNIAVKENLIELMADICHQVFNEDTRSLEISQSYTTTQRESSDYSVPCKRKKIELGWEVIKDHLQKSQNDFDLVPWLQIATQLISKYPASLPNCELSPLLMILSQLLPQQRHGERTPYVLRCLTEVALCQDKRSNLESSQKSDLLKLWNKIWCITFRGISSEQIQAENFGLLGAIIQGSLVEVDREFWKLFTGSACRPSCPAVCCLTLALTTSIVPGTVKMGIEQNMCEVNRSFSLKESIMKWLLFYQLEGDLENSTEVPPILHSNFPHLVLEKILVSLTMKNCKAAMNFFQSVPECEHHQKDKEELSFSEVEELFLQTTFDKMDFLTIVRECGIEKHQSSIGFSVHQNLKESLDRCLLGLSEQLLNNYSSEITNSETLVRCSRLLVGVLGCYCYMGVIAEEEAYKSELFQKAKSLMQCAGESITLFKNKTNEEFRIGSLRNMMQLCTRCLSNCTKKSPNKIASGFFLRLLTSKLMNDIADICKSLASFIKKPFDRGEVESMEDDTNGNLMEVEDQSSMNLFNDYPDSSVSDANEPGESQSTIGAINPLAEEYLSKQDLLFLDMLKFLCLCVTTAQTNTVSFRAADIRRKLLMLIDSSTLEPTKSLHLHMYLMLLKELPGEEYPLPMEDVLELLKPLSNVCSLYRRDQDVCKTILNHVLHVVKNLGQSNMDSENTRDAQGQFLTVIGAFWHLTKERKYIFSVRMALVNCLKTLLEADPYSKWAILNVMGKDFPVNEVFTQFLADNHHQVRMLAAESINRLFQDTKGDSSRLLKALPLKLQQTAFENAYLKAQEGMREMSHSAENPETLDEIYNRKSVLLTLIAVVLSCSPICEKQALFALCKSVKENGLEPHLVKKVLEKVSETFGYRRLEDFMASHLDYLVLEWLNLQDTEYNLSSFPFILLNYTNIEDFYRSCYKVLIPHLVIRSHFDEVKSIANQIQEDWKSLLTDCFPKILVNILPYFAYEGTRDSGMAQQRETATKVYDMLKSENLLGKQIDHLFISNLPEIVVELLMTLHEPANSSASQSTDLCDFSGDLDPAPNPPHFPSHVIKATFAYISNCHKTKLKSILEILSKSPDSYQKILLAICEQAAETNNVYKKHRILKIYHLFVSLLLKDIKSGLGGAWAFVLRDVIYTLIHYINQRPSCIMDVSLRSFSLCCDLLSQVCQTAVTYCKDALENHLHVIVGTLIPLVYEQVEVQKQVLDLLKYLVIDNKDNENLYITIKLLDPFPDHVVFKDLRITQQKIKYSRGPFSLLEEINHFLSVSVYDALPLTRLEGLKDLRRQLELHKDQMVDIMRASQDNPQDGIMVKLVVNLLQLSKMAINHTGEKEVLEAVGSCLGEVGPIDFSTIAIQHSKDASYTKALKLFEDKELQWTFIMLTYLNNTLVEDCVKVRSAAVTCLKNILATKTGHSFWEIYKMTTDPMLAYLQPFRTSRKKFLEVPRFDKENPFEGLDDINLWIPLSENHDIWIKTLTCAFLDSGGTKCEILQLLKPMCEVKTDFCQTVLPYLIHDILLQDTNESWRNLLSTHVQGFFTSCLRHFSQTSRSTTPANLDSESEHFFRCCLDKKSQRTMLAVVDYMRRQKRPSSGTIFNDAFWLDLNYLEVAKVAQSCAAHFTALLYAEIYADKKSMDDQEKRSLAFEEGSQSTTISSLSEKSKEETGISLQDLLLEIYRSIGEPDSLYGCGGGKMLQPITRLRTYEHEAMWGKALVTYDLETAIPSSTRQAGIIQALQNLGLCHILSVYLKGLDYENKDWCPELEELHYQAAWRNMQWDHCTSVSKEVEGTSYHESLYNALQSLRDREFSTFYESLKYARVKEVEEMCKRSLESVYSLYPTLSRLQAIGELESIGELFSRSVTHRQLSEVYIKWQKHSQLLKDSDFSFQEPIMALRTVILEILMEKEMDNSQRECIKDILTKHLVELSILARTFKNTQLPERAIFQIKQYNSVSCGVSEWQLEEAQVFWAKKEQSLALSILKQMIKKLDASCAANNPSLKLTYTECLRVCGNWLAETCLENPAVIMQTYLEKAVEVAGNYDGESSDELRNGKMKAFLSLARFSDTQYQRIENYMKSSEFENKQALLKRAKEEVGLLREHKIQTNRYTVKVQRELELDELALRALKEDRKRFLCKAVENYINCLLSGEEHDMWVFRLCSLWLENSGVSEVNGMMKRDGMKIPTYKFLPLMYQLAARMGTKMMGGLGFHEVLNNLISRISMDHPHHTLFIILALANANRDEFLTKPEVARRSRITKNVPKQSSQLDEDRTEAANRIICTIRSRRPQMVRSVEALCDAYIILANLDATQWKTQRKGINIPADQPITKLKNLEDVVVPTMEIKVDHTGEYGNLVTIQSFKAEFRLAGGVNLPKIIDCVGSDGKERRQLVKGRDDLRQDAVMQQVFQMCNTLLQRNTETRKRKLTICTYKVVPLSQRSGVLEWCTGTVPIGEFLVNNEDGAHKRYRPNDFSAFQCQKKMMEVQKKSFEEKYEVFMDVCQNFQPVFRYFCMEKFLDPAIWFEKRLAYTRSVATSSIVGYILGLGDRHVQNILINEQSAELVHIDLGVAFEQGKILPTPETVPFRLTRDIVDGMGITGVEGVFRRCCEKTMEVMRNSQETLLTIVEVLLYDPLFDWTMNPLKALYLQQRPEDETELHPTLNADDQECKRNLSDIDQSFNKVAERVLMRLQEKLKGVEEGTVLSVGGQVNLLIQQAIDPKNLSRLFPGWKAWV

MDR1 (human) = test: Apparent permeability from apical to basolateral side in MDCK2 cells expressing human MDR1 at 10 uM; type: ADME, cell-based, Canis lupus familiaris, MDCK-II; details: dog, MDCK-MDR1

Phosphatidylinositol 4,5-bisphosphate 3-kinase catalytic subunit alpha isoform, sequence (P42336 whole entry, canonical isoform): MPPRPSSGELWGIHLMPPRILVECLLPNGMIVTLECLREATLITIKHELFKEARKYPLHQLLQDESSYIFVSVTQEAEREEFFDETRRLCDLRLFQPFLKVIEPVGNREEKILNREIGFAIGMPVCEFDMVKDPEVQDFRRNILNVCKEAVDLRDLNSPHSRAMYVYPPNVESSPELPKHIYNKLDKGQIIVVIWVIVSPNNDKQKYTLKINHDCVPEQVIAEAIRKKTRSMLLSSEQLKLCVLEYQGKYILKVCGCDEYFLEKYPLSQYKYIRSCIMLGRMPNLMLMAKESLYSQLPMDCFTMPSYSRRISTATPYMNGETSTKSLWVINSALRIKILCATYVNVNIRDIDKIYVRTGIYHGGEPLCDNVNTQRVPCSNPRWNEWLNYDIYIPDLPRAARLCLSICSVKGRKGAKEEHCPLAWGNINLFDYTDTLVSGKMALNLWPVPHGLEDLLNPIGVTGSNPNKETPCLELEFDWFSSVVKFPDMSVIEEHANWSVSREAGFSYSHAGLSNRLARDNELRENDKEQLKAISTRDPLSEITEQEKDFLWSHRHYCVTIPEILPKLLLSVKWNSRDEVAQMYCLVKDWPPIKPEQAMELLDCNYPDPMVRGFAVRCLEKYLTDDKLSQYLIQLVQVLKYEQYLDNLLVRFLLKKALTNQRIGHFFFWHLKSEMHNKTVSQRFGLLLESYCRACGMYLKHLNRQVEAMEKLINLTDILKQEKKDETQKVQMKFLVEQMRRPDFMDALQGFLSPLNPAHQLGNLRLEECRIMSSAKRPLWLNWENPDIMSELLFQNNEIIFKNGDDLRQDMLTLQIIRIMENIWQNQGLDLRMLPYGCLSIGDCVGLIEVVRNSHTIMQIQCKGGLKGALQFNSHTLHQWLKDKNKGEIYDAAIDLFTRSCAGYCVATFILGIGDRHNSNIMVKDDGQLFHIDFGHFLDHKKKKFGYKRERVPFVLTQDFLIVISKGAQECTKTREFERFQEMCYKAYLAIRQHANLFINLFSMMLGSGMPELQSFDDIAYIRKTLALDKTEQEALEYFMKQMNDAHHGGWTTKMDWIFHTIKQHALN

Compound: COc1cc(-c2ccc(-c3ccnc(N4CCOCC4)n3)o2)cc(OC)c1O
- IC50 [1]: 0.052 µM
- IC50 [2]: > 10 µM
- GI50 [3]: 3.7 µM

Compound: COc1cc(-c2cnn(-c3ccnc(N4CCOCC4)n3)c2)cc(OC)c1O
- Activity [4]: < 50%

Compound: COc1cc(-c2csc(-c3ccnc(N4CCOCC4)n3)n2)cc(OC)c1O
- IC50 [1]: 0.18 µM
- IC50 [2]: > 10 µM
- GI50 [3]: 21 µM

Compound: COc1cc(-c2cn(-c3nc(N4CCOCC4)nc(N4CCOCC4)n3)cn2)cc(OC)c1O
- IC50 [2]: > 10 µM
- GI50 [3]: 24 µM

Compound: COc1cc(-c2ccc(-c3ccnc(N4CCOCC4)n3)s2)cc(OC)c1O
- Activity [4]: < 50%

Compound: c1cc2cc(-c3ccc(-c4cc(N5CCOCC5)nc(N5CCOCC5)n4)o3)ccc2[nH]1
- IC50 [1]: > 10 µM

Compound: COc1cc(-c2ccc(-c3cc(N4CCOCC4)nc(N4CCOCC4)n3)o2)cc(OC)c1O
- IC50 [1]: 0.023 µM
- IC50 [2]: > 10 µM
- GI50 [3]: 16 µM

Compound: COc1cc(/C=N/Nc2nc(N3CCOCC3)nc(N3CCOCC3)n2)cc(OC)c1O
- IC50 [1]: 0.27 µM
- IC50 [2]: > 10 µM
- IC50 [5]: > 10 µM

Compound: OCc1cccc(-c2ccc(-c3cc(N4CCOCC4)nc(N4CCOCC4)n3)o2)c1
- Papp A→B at 10 µM (MDR1 (human)): 33 ×10⁻⁶ cm/s

Compound: Oc1cccc(-c2ccc(-c3cc(N4CCOCC4)nc(N4CCOCC4)n3)o2)c1
- Papp A→B at 10 µM (MDR1 (human)): 2.2 ×10⁻⁶ cm/s

Source: ChEMBL document CHEMBL1156040, “Identification and optimisation of novel and selective small molecular weight kinase inhibitors of mTOR” (Bioorg Med Chem Lett, 2009)
